Data set [1] in a line: Ionophoric activity in large unilamellar vesicles containing 95:5 egg phosphatidylcholine and egg phosphatidylglycerol assessed as fluorescence emission at 25 degC after 10 mins by HPTS assay in presence of Na+. Format: ADME.
The nature of data set [2]: Ionophoric activity in large unilamellar vesicles containing 95:5 egg phosphatidylcholine and egg phosphatidylglycerol assessed as fluorescence emission at 25 degC after 10 mins by HPTS assay in presence of Cs+. Format: ADME.
Data set [3] in a line: Ionophoric activity in large unilamellar vesicles containing 95:5 egg phosphatidylcholine and egg phosphatidylglycerol assessed as fluorescence emission at 25 degC after 10 mins by HPTS assay in presence of Li+. It is filed as ADME.
The nature of data set [4]: Cytotoxicity against human SH-SY5Y cells assessed as cell viability after 48 hrs by MTT assay. It is filed as functional, cell-based. On the technique in general: Formazan colour is commonly taken as a measure of viable cells.
The nature of data set [5]: Ionophoric activity in large unilamellar vesicles containing 95:5 egg phosphatidylcholine and egg phosphatidylglycerol assessed as fluorescence emission at 25 degC after 10 mins by HPTS assay in presence of Br-. It is filed as ADME.
A further data set deals with HaCaT. Kind of data set: Cytotoxicity against human HaCaT cells assessed as cell viability after 48 hrs by MTT assay. Format: functional, cell-based.
A short description of data set [6]: Ionophoric activity in large unilamellar vesicles containing 95:5 egg phosphatidylcholine and egg phosphatidylglycerol assessed as fluorescence emission at 25 degC after 10 mins by HPTS assay in presence of Rb+. Format: ADME.
Data set [7] in a line: Ionophoric activity in large unilamellar vesicles containing 95:5 egg phosphatidylcholine and egg phosphatidylglycerol assessed as fluorescence emission at 25 degC after 10 mins by HPTS assay in presence of Cl-. Format: ADME.
Data set [8] in a line: Ionophoric activity in large unilamellar vesicles containing 95:5 egg phosphatidylcholine and egg phosphatidylglycerol assessed as fluorescence emission at 25 degC after 10 mins by HPTS assay in presence of K+. It is filed as ADME.
A short description of data set [9]: Ionophoric activity in large unilamellar vesicles containing 95:5 egg phosphatidylcholine and egg phosphatidylglycerol assessed as fluorescence emission at 25 degC after 10 mins by HPTS assay in presence of F-. It is filed as ADME.
Data set [10] is described as follows: Ionophoric activity in large unilamellar vesicles containing 95:5 egg phosphatidylcholine and egg phosphatidylglycerol assessed as fluorescence emission at 25 degC after 10 mins by HPTS assay in presence of I-. Format: ADME.
In a further data set the test system is DU-145. Briefly: Cytotoxicity against human DU145 cells assessed as cell viability after 48 hrs by MTT assay. Format: functional, cell-based. The following applies: DU-145, 48 h.
In a further data set the test system is MCF7. Kind of data set: Cytotoxicity against human MCF7 cells assessed as cell viability after 48 hrs by MTT assay. It is filed as functional, cell-based. Particulars: MCF7, 48 h; call rule not given here.

What is called IC50 is the concentration needed to halve the response being measured. Take `Nc1nc2c(ncn2C(=O)CCC(=O)OC[C@H]2O[C@H](O[C@H]3O[C@H](CO)[C@@H](O)[C@H](O)[C@H]3O)[C@H](O)[C@@H](O)[C@@H]2O)c(=O)[nH]1`: the outcome in data set [1], in [2], in data set [3], in [5], in data set [6] and in data set [7] was Active. For the same compound, the result in [8], in [9] and in data set [10] was Active. The IC50 in data set [4] stood at 5 µM; in the data set on HaCaT, 80 µM; with DU-145, 25 µM; in the data set with MCF7, 1 µM.

Regarding `COCCOCCOCCn1cnc2c(=O)[nH]c(N)nc21`, the Activity result in data set [1] and in [8] was “Not Active” in each case. In addition, the IC50 (in [4]; in the data set with HaCaT; in the data set with DU-145; in the data set with MCF7) was over 100 µM each time.

Regarding `CCCCCCCCCCCCCC(=O)O[C@@H]1[C@H](OC(=O)CCCCCCCCCCCCC)[C@@H](COC(=O)CCC(=O)OC[C@H]2O[C@H](O[C@H]3O[C@H](CO)[C@@H](O)[C@H](O)[C@H]3O)[C@H](O)[C@@H](O)[C@@H]2O)O[C@H]1n1cnc2c(=O)[nH]c(N)nc21`, in [4], the IC50 came to 17 µM.
